Patent US8648065B2, “Antibacterial medicinal composition of enhanced oral absorptivity” (Meiji Seika Pharma Co., Ltd., priority 2002, dated 2014)

Experiment: Oral absorbability of cefditoren pivoxil suspensions in dogs
Type: in vivo
Conditions: suspension of crystals as compared to an amorphous suspension
Text: On the other hand, since amorphous cefditoren pivoxil is apt to change into a crystalline state in a solution, an antibiotic pharmaceutical composition comprising amorphous cefditoren pivoxil still needs to be improved.

CO/N=C(\C(=O)N[C@@H]1C(=O)N2C(C(=O)OCOC(=O)C(C)(C)C)=C(/C=C\c3scnc3C)CS[C@H]12)c1csc(N)n1 [cefditoren pivoxil, (−)-(6R,7R)-7-[(Z)-2-(2-aminothiazol-4-yl)-2-methoxyiminoacetamido]-3-[(Z)-2-(4-methylthiazol-5-yl)ethenyl]-8-oxo-5-thia-1-azabicyclo[4.2.0]oct-2-ene-2-carboxylic acid 2,2-dimethylpropionyloxymethyl ester]
Oral absorbability in dogs (in words): extremely low oral absorbability
